According to patent US7049133B2, “Regulation of gene expression through manipulation of mRNA splicing and its uses” (Yissum Research Development Company of the Hebrew …, priority 1998, dated 2006):
Read-outs that look alike come from different tables or passages of the source.

Columns and labels:
CAT mRNA = assay: RNase protection analysis of CAT mRNA in transfected BHK-21 cells; assay type: cell-based
Protocol: (§1) BHK-21 cells were grown in DMEM medium supplemented with 2 mM glutamine, 40 mM NaHCO3, 10 mM Hepes, pH 7.3, […] of penicillin and streptomycin, […] nystatin and 10% fetal calf serum. 2-AP (Sigma) was added at 10 mM unless otherwise indicated. To prepare a stock solution of 0.15 M, 2-AP was dissolved in phosphate-buffered saline by heating at 70° C. for 10 min.
(§2) In the experiments of FIGS. 2 and 3, monolayers of BHK-21 cells were seeded at a density of 1−2×10^6 cells/8-cm Petri dish and grown overnight; 4 h before cotransfection, culture medium was replaced. A mixture of […] of test DNA construct and 4 mg salmon sperm DNA carrier, and, when included, 2 mg pSV2CAT DNA [47], was permeated into cells by the calcium phosphate-DNA coprecipitation technique. After 12–18 h, culture medium was replaced with fresh medium prewarmed to 37° C. In the experiments of FIGS. 6 and 7, LipofectAmine (Life Technologies) was employed following instructions of the supplier, using 1 mg of each DNA for transfection.
For RNase protection analysis, DNA was subcloned in pBS (Stratagene) under the T3 or T7 promoter and transcribed using [a-^32P]UTP to generate labeled anti-sense RNA transcripts. A TNF-α RNA probe (map: FIG. 2A) was generated from a 821-bp EcoRI-Sau3AI fragment containing the 5′-flank, 151 -bp 5′-UTR, and first 6 codons. A second TNF-α RNA probe was generated from a 823-bp EcoRI-EcoRI 3′-UTR fragment from which a 5′-terminal fragment was removed by BstEII digestion, leaving 83 3′-terminal bp of the 3′-UTR and 250 bp beyond the 3′ cleavage site (map: FIG. 2A). A third TNF-α RNA probe (map: FIG. 2B) was generated from a 700-bp Sau3AI-Sau3AI fragment consisting of 10 bp of intron 2, exon 3, intron 3 and part of exon 4. A TNF-β probe was generated from a 637-bp Bsu36I-EcoRI DNA fragment, containing part of intron 3 and 571 bp of exon 4 (map: FIG. 3A). […] A probe of 250-nt, generated from a HindIII-EcoRI fragment of the coding region of the CAT gene, was used to quantitate CAT mRNA. Intactness of RNA probes was assessed by polyacrylamide gel electrophoresis. […]

[1] = test system: splicing of TNF-α precursor transcripts; assay: RNase protection analysis of TNF-α precursor transcripts and spliced mRNA in transfected BHK-21 cells; assay type: cell-based, hamster
Protocol: as §1, §2
(§3) For RNase protection analysis, DNA was subcloned in pBS (Stratagene) under the T3 or T7 promoter and transcribed using [a-^32P]UTP to generate labeled anti-sense RNA transcripts. A TNF-α RNA probe (map: FIG. 2A) was generated from a 821-bp EcoRI-Sau3AI fragment containing the 5′-flank, 151 -bp 5′-UTR, and first 6 codons. A second TNF-α RNA probe was generated from a 823-bp EcoRI-EcoRI 3′-UTR fragment from which a 5′-terminal fragment was removed by BstEII digestion, leaving 83 3′-terminal bp of the 3′-UTR and 250 bp beyond the 3′ cleavage site (map: FIG. 2A). A third TNF-α RNA probe (map: FIG. 2B) was generated from a 700-bp Sau3AI-Sau3AI fragment consisting of 10 bp of intron 2, exon 3, intron 3 and part of exon 4. A TNF-β probe was generated from a 637-bp Bsu36I-EcoRI DNA fragment, containing part of intron 3 and 571 bp of exon 4 (map: FIG. 3A). A second TNF-β RNA probe (map: FIG. 3B) was generated from a 324-bp EcoRI-Bsu36I DNA fragment, containing part of exon 1, exon 2, exon 3 and a portion of intron 3. A probe of 250-nt, generated from a HindIII-EcoRI fragment of the coding region of the CAT gene, was used to quantitate CAT mRNA. Intactness of RNA probes was assessed by polyacrylamide gel electrophoresis.
(§4) Total RNA was isolated using guanidinium isothiocyanate/CsC1. RNase protection analysis with RNases A and T1 was performed using genomic TNF-α and TNF-β riboprobes and CAT or actin probes as described. Protected RNA fragments were separated by electrophoresis in 5% polyacrylamide/8 M urea gels. Size markers in FIG. 3 were generated by MspI digestion of pGEM-3 DNA and filling in with [a-^32P]dCTP [12]. Size marker in FIG. 7 is a 100-bp DNA ladder (Fermentas) that was dephosphorylated and 5′ end-labeled with [γ-^32P]ATP.

PKR = biological target: T1, PKR (Oryctolagus cuniculus, UniProt A0A0U2KCE0); assay: Phosphorylation of PKR and eIF2α in ribosome fraction from rabbit reticulocyte lysate; assay type: biochemical
T1 construct: phosphorylation of the PKR (68 kDa) and eIF2α (38 kDa) bands in the ribosome fraction of rabbit reticulocyte lysate; from tissue; host or cells: ribosome fraction of rabbit reticulocyte lysate
T1 sequence (A0A0U2KCE0 1-547): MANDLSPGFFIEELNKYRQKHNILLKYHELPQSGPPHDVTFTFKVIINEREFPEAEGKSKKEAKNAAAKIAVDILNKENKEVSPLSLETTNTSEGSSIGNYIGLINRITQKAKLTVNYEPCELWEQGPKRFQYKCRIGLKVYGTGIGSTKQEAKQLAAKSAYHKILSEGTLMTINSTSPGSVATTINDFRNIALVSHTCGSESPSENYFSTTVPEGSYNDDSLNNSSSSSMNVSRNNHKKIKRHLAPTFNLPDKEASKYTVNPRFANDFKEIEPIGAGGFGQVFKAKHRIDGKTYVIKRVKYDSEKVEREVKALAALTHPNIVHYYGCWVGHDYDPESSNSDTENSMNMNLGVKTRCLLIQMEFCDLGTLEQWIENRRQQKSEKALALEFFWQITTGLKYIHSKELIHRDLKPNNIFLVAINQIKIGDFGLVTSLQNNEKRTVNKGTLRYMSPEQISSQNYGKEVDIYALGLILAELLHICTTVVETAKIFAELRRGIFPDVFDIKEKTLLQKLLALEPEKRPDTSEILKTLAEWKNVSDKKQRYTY
Text: A 823-bp EcoRI-EcoRI TNF-α gene fragment comprised of 573 3′-terminal bp of the 3′-UTR, the polyadenylation site and downstream sequences from pTNF-α was inserted into pBS under the T7 promoter. To obtain 3′-UTR sense transcripts, the DNA was digested with PstI (EP), NcoI (EN), AflIII (EA), SspI (ES) or XmnI (EX) and then transcribed in vitro. A 616-bp NcoI-EcoRI TNF-α gene fragment comprised of 366 3′-terminal bp of the 3′-UTR, the polyadenylation site and downstream sequences from pTNF-α was inserted into pBS under the T7 promoter. To obtain 3′-UTR sense transcripts, the DNA was digested with AflIII (NA) or XmnI (NX) and then transcribed in vitro. A 572-bp EcoRI-PstI TNF-β gene fragment comprised of 389 3′-terminal bp of the 3′-UTR, the polyadenylation site and downstream sequences from pTNF-β was inserted into pBS under the T7 promoter. To obtain 3′-UTR sense transcript, the DNA was digested with PstI and then transcribed in vitro. EP RNA transcript was purified by agarose gel electrophoresis, followed by chromatography on CF-11 cellulose, washing with ethanol and eluting with water as described. Phosphorylation of PKR and eIF2α chain was assayed by incubating polyI:polyC or 3′-UTR transcript with the ribosome fraction from rabbit reticulocyte lysate in the presence of [γ-^32P]ATP for 20 min at 30° C. as described and subjecting the reaction mixture to electrophoresis in 10% polyacryamide gels containing sodium dodecyl sulfate.

[2] = test system: splicing of TNF-β precursor transcripts; assay: RNase protection analysis of TNF-β precursor transcripts and spliced RNA in transfected BHK-21 cells; assay type: cell-based, hamster
Protocol: as §1, §2, §3, §4

[3] = test system: primary human lymphoid cells; conditions: cited from earlier work
BHK-21 cells = assay type: cell-based, baby hamster
Protocol: as §1, §2

[4] = pTNF-α(3′UTR-β), 2-AP from 16 h
[5] = pTNF-α, 2-AP 10 mM from 18 h after transfection
[6] = pTNF-β(3′UTR-α), 2-AP in presence of CHX
[7] = pTNF-β(3′UTR-α), intron 3/exon 4 probe, 2-AP from 16 h

Molecule: Nc1ncc2[nH]cnc2n1 [2-AP, 2-Aminopurine]
- Expression of CAT mRNA carrying TNF-α3′-UTR portion (CAT mRNA; p5′CAT(3′UTR-α)): unaffected
- Expression of CAT mRNA (CAT mRNA; p5′CAT, 10 mM 2-AP): proceeded unabated
- Expression of a cotransfected CAT gene (CAT mRNA; pSV2CAT cotransfected with pTNF-α, 2-AP 10 mM): not affected
- mRNA ([1]; pTNF-α(3′UTR-αEP), 2-AP added at 20 h): decline
- Rise in precursor transcripts ([1]; pTNF-α(3′UTR-αEP), 2-AP added at 20 h, at 53 h): up to 36 fold
- Expression of spliced mRNA (341-nt band) [1, 4]: failed to decline
- Precursor transcripts (700 nt) [1, 4]: nor did precursor transcripts (700 nt) increase
- Accumulation of precursor transcripts ([1]; pTNF-α(Δ3′UTR), 2-AP 10 mM): nor was there any enhanced accumulation
- Expression of mRNA ([1]; pTNF-α(Δ3′UTR), 2-AP 10 mM): no longer inhibited
- Expression of TNF-α RNA transcripts ([1]; pTNF-α, 2-AP 2 mM from time of transfection): reduction
- Expression of TNF-α RNA transcripts ([1]; pTNF-α, 2-AP 6 mM from time of transfection): full inhibition
- Expression of spliced TNF-α mRNA (341-nt band) [1, 5]: strongly inhibited
- TNF-α precursor transcripts (700-nt band) [1, 5]: enhanced accumulation
- Sensitivity of PKR activation by 3′UTR-αEP RNA to 2-AP, compared with activation by dsRNA (PKR; 1 mM 2-AP): less sensitive
- Phosphorylation of PKR and eIF2α driven by purified 3′UTR-αEP RNA (PKR; 1 and 5 mM of 2-AP): inhibited progressively
- Sensitivity of splicing of TNF-β precursor transcripts carrying an inverted TNF-α3′-UTR sequence, compared with TNF-β(3′UTR-α) transcripts [2]: as sensitive
- Generation of spliced RNA [2, 6]: inhibited
- Precursor transcripts [2, 6]: increased
- Precursor transcripts [2, 7]: strong increase
- Spliced RNA [2, 7]: concomitant decline
- Spliced mRNA versus precursor transcripts ([2]; pTNF-β(3′UTR-αEP), 2-AP added at 20 h): pronounced shift from spliced mRNA to precursor transcripts
- Expression of spliced TNF-β RNA ([2]; pTNF-β(Δ3′UTR)): insensitive
- Spliced RNA (214-nt band) and precursor transcripts ([2]; pTNF-β, exon 1-3/intron 3 probe, 2-AP from 12 h): decrease
- TNF-β precursor transcripts (637 nt) and mRNA (571 nt) ([2]; pTNF-β, intron 3/exon 4 probe, 2-AP from 12 h): precursors and mRNA both declined
- TNF-β precursor transcripts and spliced mRNA ([3]; lymphoid cells, increasing doses): coordinate decline
- Expression of TNF-α mRNA ([3]; primary human lymphoid cells): blocks expression
- Cell viability (BHK-21 cells; FIG. 2 experiments, 2-AP up to 10 mM): remained constant
- Cell viability (BHK-21 cells; FIG. 3 experiments, 2-AP and CHX present): remained constant

Molecule: C[C@@H]1C[C@@H]([C@H](O)CC2CC(=O)NC(=O)C2)C(=O)[C@@H](C)C1 [CHX]
- Expression of both precursor transcripts and spliced RNA ([2]; pTNF-β(3′UTR-α), CHX from 16 h): enhanced expression

B1: 3′UTR-αEP RNA: T7 RNA transcript of the 104-bp EcoRI-PstI fragment of the human TNF-α3′-UTR (2-APRE, SEQ ID NO:1) (nucleic acid, listed as Homo sapiens)
chain: GAATTCAAACTGGGGCCTCCAGAACTCACTGGGGCCTACAGCTTTGATCCCTGACATCTGGAATCTGGAGACCAGGGAGCCTTTGGTTCTGGCCAGAATGCTGC
modifications: RNA, all phosphodiester, T or U not given here
- Induced phosphorylation of PKR and eIF2α, dependence on RNA concentration (PKR): at low but not high RNA concentrations
- Activation of PKR, judged by phosphorylation of PKR (68 kDa) and eIF2α (38 kDa) bands (PKR; RNA 0.05 ng/ml, compared with dsRNA): activated PKR even more strongly than dsRNA
- Molar specific activity as inducer of PKR phosphorylation (PKR; each TNF RNA at 0.05 ng/ml): highest molar specific activity
